Like-named read-outs stand apart in the source and are kept apart here.
Key:
[1] = biological target: T1, hCA II (Homo sapiens, UniProt P00918); assay: CA catalysed CO2 hydration, stopped-flow inhibition; type: biochemical
T1 construct: made in house
Method: (§1) The uncatalyzed rates were determined in the same manner and subtracted from the total observed rates. Stock solutions of inhibitor (0.1 mM) were prepared in distilled − deionized water and dilutions up to 0.01 nM were done thereafter with the assay buffer. Inhibitor and enzyme solutions were preincubated together for 15 min at room temperature before assay to allow for the formation of the E − I complex. The inhibition constants were obtained by nonlinear least-squares methods using PRISM 3 and the Cheng − Prusoff equation, as reported earlier,[39]^,[40] and represent the mean from at least three different determinations. […] All human CA (hCA) isoforms were recombinant ones obtained in-house as reported earlier.[41]^,[42]

[2] = biological target: T2, hCA I (Homo sapiens, UniProt P00915); assay: as above; type: biochemical
T2 construct: made in house
Method: as §1

[3] = biological target: T3, hCA IX (Homo sapiens, UniProt Q16790); assay: as above; type: biochemical; details: for Ki: recombinant hCA IX, stopped-flow CO2 hydration, 15 min preincubation
T3 construct: made in house
Method: as §1

[4] = biological target: T4, hCA XII (Homo sapiens, UniProt O43570); assay: as above; type: biochemical
T4 construct: made in house
Method: An Applied Photophysics stopped-flow instrument has been used for assaying the CA catalysed CO2 hydration activity.[38] Phenol red (at a concentration of 0.2 mM) has been used as an indicator, working at the absorbance maximum of 557 nm, with 20 mM Hepes (pH 7.5) as a buffer and 20 mM Na2SO4 (for maintaining constant the ionic strength), following the initial rates of the CA-catalysed CO2 hydration reaction for a period of 10–100 s. The CO2 concentrations ranged from 1.7 to 17 mM for the determination of the kinetic parameters and inhibition constants. […]. The uncatalyzed rates were determined in the same manner and subtracted from the total observed rates. Stock solutions of inhibitor (0.1 mM) were prepared in distilled − deionized water and dilutions up to 0.01 nM were done thereafter with the assay buffer. Inhibitor and enzyme solutions were preincubated together for 15 min at room temperature before assay to allow for the formation of the E − I complex. The inhibition constants were obtained by nonlinear least-squares methods using PRISM 3 and the Cheng − Prusoff equation, as reported earlier,[39]^,[40] and represent the mean from at least three different determinations. The enzyme concentrations were in the range 3–11 nM. All human CA (hCA) isoforms were recombinant ones obtained in-house as reported earlier.[41]^,[42]

[5] = system: hCA isoforms I, II, VA, IX, and XII; assay: CA inhibition, summary statements over all tested isoforms; type: biochemical, human; details: for isoform selectivity (in words): from the Ki values of Table 1; for Ki: all CA isoforms tested for series b, read-out: Ki range over all CA isoforms
Method: An Applied Photophysics stopped-flow instrument has been used for assaying the CA catalysed CO2 hydration activity.[38] Phenol red (at a concentration of 0.2 mM) has been used as an indicator, working at the absorbance maximum of 557 nm, with 20 mM Hepes (pH 7.5) as a buffer and 20 mM Na2SO4 (for maintaining constant the ionic strength), following the initial rates of the CA-catalysed CO2 hydration reaction for a period of 10–100 s. The CO2 concentrations ranged from 1.7 to 17 mM for the determination of the kinetic parameters and inhibition constants. For each inhibitor, at least six traces of the initial 5 − 10% of the reaction have been used for determining the initial velocity. The uncatalyzed rates were determined in the same manner and subtracted from the total observed rates. Stock solutions of inhibitor (0.1 mM) were prepared in distilled − deionized water and dilutions up to 0.01 nM were done thereafter with the assay buffer. Inhibitor and enzyme solutions were preincubated together for 15 min at room temperature before assay to allow for the formation of the E − I complex. The inhibition constants were obtained by nonlinear least-squares methods using PRISM 3 and the Cheng − Prusoff equation, as reported earlier,[39]^,[40] and represent the mean from at least three different determinations. The enzyme concentrations were in the range 3–11 nM. All human CA (hCA) isoforms were recombinant ones obtained in-house as reported earlier.[41]^,[42]

[6] = recombinant hCA II, stopped-flow CO2 hydration, 15 min preincubation, read-out: Ki hCA II
[7] = recombinant hCA I, stopped-flow CO2 hydration, 15 min preincubation, read-out: Ki hCA I
[8] = recombinant hCA XII, stopped-flow CO2 hydration, 15 min preincubation, read-out: Ki hCA XII

T2 sequence (P00915 whole entry): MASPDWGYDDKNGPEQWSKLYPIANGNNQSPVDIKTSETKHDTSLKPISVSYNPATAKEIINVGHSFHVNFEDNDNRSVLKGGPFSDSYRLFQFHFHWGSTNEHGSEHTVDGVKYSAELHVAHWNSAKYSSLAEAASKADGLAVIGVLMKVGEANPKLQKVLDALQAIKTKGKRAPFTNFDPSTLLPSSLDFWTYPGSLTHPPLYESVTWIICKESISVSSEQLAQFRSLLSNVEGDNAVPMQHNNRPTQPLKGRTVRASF
T4 sequence (O43570 25-354): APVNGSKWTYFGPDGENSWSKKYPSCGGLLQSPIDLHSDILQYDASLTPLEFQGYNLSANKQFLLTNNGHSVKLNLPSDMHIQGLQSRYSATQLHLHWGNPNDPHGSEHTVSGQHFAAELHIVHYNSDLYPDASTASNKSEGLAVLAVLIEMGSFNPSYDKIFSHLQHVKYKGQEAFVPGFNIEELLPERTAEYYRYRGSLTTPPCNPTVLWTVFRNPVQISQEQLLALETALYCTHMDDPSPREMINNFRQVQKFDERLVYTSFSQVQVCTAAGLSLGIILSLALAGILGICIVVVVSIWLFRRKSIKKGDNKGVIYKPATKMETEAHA

| SMILES | Ki [1, 6] | Ki [2, 7] | Ki [3] | Ki [4, 8] | other results |
| --- | --- | --- | --- | --- | --- |
| C#CC[Se]C(=O)C12CC3CC(CC(C3)C1)C2 [Compound 1b] | > 100 µM | > 100 µM | 9.1 µM | 28.4 µM | isoform selectivity (in words) [5]: selectivity for tumour-associated isoforms IX and XII |
| C#CC[Se]C(=O)c1ccccc1 [Compound 2b] | > 100 µM | 80.5 µM | 7.8 µM | 55.7 µM | times higher inhibition of CA IX than of isoform I ([3]; CA IX versus CA I): ~13 times; times higher inhibition of CA IX than of isoform II ([3]; CA IX versus CA II): ~10 times |
| C#CC[Se]C(=O)c1ccccc1Cl [Compound 3b] | – | – | 41.6 µM | – | Ki [4]: 28.8 µM; Ki [1]: > 100 µM; Ki [2]: 42.1 µM |
| C#CC[Se]C(=O)c1ccc2c(c1)OCO2 [Compound 4b] | 53.5 µM | 31.3 µM | 67.7 µM | > 100 µM | – |
| C#CC[Se]C(=O)C=Cc1ccccc1 [Compound 5b] | 42.7 µM | 24.1 µM | 79.3 µM | > 100 µM | – |
| C#CC[Se]C(=O)CCc1ccccc1 [Compound 6b] | – | – | 25 µM | – | Ki [4]: 7 µM; Ki [1]: 9.5 µM; Ki [2]: 3.1 µM; times more potent than analog without the spacer (2b) ([2]; CA I, Ki ratio versus 2b): 26 times; times more potent than analog with the double-bond spacer (5b) ([2]; CA I, Ki ratio versus 5b): 7.7 times; Ki [5]: 2.2 to 48.5 µM |
| C=CC[Se]C(=O)c1cccnc1Cl [Compound 8a] | > 100 µM | > 100 µM | 89.4 µM | – | – |
| C#CC[Se]C(=O)c1cccnc1Cl [Compound 8b] | 8.6 µM | 2.2 µM | 48.5 µM | 9.6 µM | increase of inhibitory activity compared to unsubstituted pyridine ([2]; CA I, Ki ratio versus 7b): 13.7 times; Ki [5]: 2.2 to 48.5 µM |
| C#CC[Se]C(=O)c1cccs1 [Compound 9b] | 46.6 µM | 9.2 µM | > 100 µM | 97 µM | – |
| C=CC[Se]C(=O)c1sccc1Cl [Compound 10a] | > 100 µM | > 100 µM | > 100 µM | – | – |
| C#CC[Se]C(=O)c1ccno1 [Compound 12b] | > 100 µM | 58.4 µM | 22.4 µM | 66.6 µM | decrease of inhibitory capacity on substitution of furan ring (11b) by isoxazole ([2]; CA I, Ki ratio versus 11b): ~7 fold |
| C#CC[Se]C(=O)c1ccccc1O [Compound 13b] | > 100 µM | 23.3 µM | 54.8 µM | > 100 µM | isoform selectivity (in words) [5]: selectivity for cytosolic CA I isoform and tumour-associated CA IX |
| C#CC[Se]C(=O)C(C)c1ccc(CC(C)C)cc1 (stereo not shown) [Compound 15b] | > 100 µM | 77.1 µM | 47.7 µM | > 100 µM | isoform selectivity (in words) [5]: selectivity for cytosolic CA I isoform and tumour-associated CA IX |
| C#CC[Se]C(=O)[C@@H](C)c1ccc2cc(OC)ccc2c1 [Compound 16b] | > 100 µM | 91.5 µM | 24.7 µM | > 100 µM | isoform selectivity (in words) [5]: selectivity for cytosolic CA I isoform and tumour-associated CA IX |
| C#CC[Se]C(=O)Cc1c(C)n(C(=O)c2ccc(Cl)cc2)c2ccc(OC)cc12 [Compound 17b] | > 100 µM | > 100 µM | 58.5 µM | > 100 µM | isoform selectivity (in words) [5]: selectivity for tumour-associated isoform IX |
| C#CC[Se]C(=O)c1ccccc1Nc1cccc(C)c1C [Compound 18b] | 4.5 µM | > 100 µM | 9.6 µM | 46.3 µM | fold greater inhibition potency for CA II than for CA I ([1]; CA II versus CA I): 22 fold |
| C#CC[Se]C(=O)c1ccccc1Nc1cccc(C(F)(F)F)c1 [Compound 19b] | > 100 µM | > 100 µM | 9.5 µM | > 100 µM | isoform selectivity (in words) [5]: selectivity for tumour-associated isoform IX |

Now from value to molecule, other results behind:

| Ki [1, 6] | Ki [2, 7] | Ki [3] | SMILES | Ki [4, 8] | other results |
| --- | --- | --- | --- | --- | --- |
| > 100 µM | > 100 µM | > 100 µM | C=CC[Se]C(=O)C12CC3CC(CC(C3)C1)C2 [Compound 1a] | – | – |
| > 100 µM | > 100 µM | > 100 µM | C=CC[Se]C(=O)c1ccccc1 [Compound 2a] | – | – |
| > 100 µM | > 100 µM | > 100 µM | C=CC[Se]C(=O)c1ccccc1Cl [Compound 3a] | – | – |
| > 100 µM | > 100 µM | > 100 µM | C=CC[Se]C(=O)C=Cc1ccccc1 [Compound 5a] | – | – |
| > 100 µM | > 100 µM | > 100 µM | C=CC[Se]C(=O)c1cccnc1 [Compound 7a] | – | – |
| 66.3 µM | 30.2 µM | 38.2 µM | C#CC[Se]C(=O)c1cccnc1 [Compound 7b] | 85.1 µM | – |
| > 100 µM | > 100 µM | > 100 µM | C=CC[Se]C(=O)c1cccs1 [Compound 9a] | – | – |
| 88.5 µM | > 100 µM | > 100 µM | C#CC[Se]C(=O)c1sccc1Cl [Compound 10b] | 98.5 µM | – |
| > 100 µM | > 100 µM | > 100 µM | C=CC[Se]C(=O)c1ccco1 [Compound 11a] | – | – |
| 49.9 µM | 8.5 µM | 7.1 µM | C#CC[Se]C(=O)c1ccco1 [Compound 11b] | 59.6 µM | – |
| > 100 µM | > 100 µM | > 100 µM | C=CC[Se]C(=O)c1ccno1 [Compound 12a] | – | – |
| > 100 µM | > 100 µM | > 100 µM | C=CC[Se]C(=O)c1ccccc1O [Compound 13a] | – | – |
| > 100 µM | > 100 µM | > 100 µM | C=CC[Se]C(=O)c1ccccc1OC(C)=O [Compound 14a] | – | – |
| 55.3 µM | 5 µM | > 100 µM | C#CC[Se]C(=O)c1ccccc1OC(C)=O [Compound 14b] | 89.7 µM | – |
| > 100 µM | > 100 µM | > 100 µM | C=CC[Se]C(=O)[C@@H](C)c1ccc2cc(OC)ccc2c1 [Compound 16a] | – | – |

Reference: publication PMC10035951, “Selenium-analogs based on natural sources as cancer-associated carbonic anhydrase isoforms IX and XII inhibitors” (Journal of Enzyme Inhibition and Medicinal Chemistry, 2023)
